Data: publication PMC2699550, “Bacterial Ortholog of Mammalian Translocator Protein (TSPO) with Virulence Regulating Activity” (PLoS ONE, 2009)

Target: T1, bacterial TSPO (P. fluorescens MF37 TSPO)
T1 construct: native protein in bacterial membranes; 438 bp fragment encoding 146 residues; theoretical 17 kDa, 37 kDa band on SDS-PAGE, apparent dimer
Assay: [3H]-PK […] saturation binding, Scatchard, bacterial membranes
Assay type: biochemical, Pseudomonas fluorescens
Details: labelled compound; native membranes, 50 mM Tris-HCl pH 7.4; 0.6 to 59 nM tracer; non-specific with 30 µM PK 11195

`CCC(C)N(C)C(=O)c1cc2ccccc2c(-c2ccccc2Cl)n1` (stereo not shown) [PK 11195] was tested, and the Kd was 0.92 nM.
